Data on three compounds can be found in patent US6300345A, “Cyanoguanidines as cell proliferation inhibitors” (Leo Pharmacuetical Products Ltd. A/S (L.o slashed.vens …, priority 1997, dated 2001).

Assay type in all cases: cell-based
Assay [1] deals with human breast cancer (MCF-7). As to the kind of experiment: Inhibition of tumour cell proliferation in vitro ([3H]thymidine incorporation), MCF-7. The following applies: MCF7, MCF-7, 24 hours. The procedure: (§1) The inhibition of tumour cell proliferation was studied using different types of human cancer cell lines. The cell lines under investigation were small cell lung carcinoma (NYH), non small cell lung carcinoma (NCI-H460), and breast cancer (MCF-7) using the following general procedure:
(§2) The cells were cultured in vitro for 24 hours in the presence of the compound under investigation. DNA synthesis was measured by incorporation of [3H]thymidine, and the median inhibitory concentrations (IC50) of the compounds were calculated.
(In general: Dividing cells build labelled thymidine or BrdU into new DNA.)

Assay [2] deals with human small cell lung carcinoma (NYH). Nature of the assay: Inhibition of tumour cell proliferation in vitro ([3H]thymidine incorporation), NYH. The following applies: 24 hours. The procedure: as §1, §2
Assay [3] deals with human non small cell lung cancer (NCI-H460). As to the kind of experiment: Inhibition of tumour cell proliferation in vitro ([3H]thymidine incorporation), NCI-H460. The following applies: NCI-H460, 24 hours. The procedure: as §1, §2

Structures are written as SMILES.

One may read the IC50 as the midpoint of a concentration-inhibition curve. A lower IC50 goes with greater potency in that assay.

For the compound `N#CN=C(NCCCCCCCCCCCCNC(=NC#N)Nc1cccnc1)Nc1cccnc1` [Example No. 6, 1,12-Bis(N'-cyano-N"-3-pyridylguanidino)dodecane], the values for the IC50 in assay [1], in assay [2] and in assay [3] were 26 nM, 4.4 nM and 65 nM, respectively.
The corresponding values for `N#CN=C(NCCCCCCCCCCNC(=NC#N)Nc1ccncc1)Nc1ccncc1` [Example No. 8, 1,10-Bis(N'-cyano-N"-4-pyridylguanidino)decane] are 6.6 nM, 0.91 nM and 65 nM.
The corresponding values for `N#CN=C(NCCCCCCCCCCCCNC(=NC#N)Nc1ccncc1)Nc1ccncc1` [Example No. 14, 1,12-Bis(N'-cyano-N"-4-pyridylguanidino)dodecane] are 13 nM, 0.5 nM and 69 nM.
